The test system of data set [1] is amphetamine-induced hyperlocomotion. In words: Reversal of amphetamine-induced hyperlocomotion in rats. It is filed as in vivo, male Sprague-Dawley rats. Conditions: 10 mg/kg p.o.; amphetamine 1 mg/kg s.c.; intervals 13-24; rat. As to the method:
The study was carried out using male Sprague-Dawley rats weighing 225 g-275 g, between 2-3 months old (Harlan, Inc., Indianapolis, Ind.). They were kept in the animal care facility certified by the American Association for the Accreditation of Laboratory Animal Care (AALAC) under a 12-hour light/dark cycle (lights on: 6 a.m.; lights off: 6 p.m.) and had free access to food and water. The experimental protocols performed during the light cycle were approved by the Institutional Animals Care and Use Committee of Vanderbilt University and conformed to the guidelines established by the National Research Council Guide for the Care and Use of Laboratory Animals
Locomotor activity was assessed as mean distance traveled (cm) in Smart Open Field locomotor activity test chambers (Hamilton-Kinder, San Diego, Calif.) with 16×16 photobeams with chambers measuring 43.2 cm (Length)×43.2 cm (Width)×30.5 cm (Height) (Med Associates, St. Albans, Vt.). The animals were habituated for 30 min and then dosed with vehicle or test compound. The rats were then placed into cages. At 60 min, all rats were injected subcutaneously with 1 mg/kg amphetamine or vehicle and then monitored for an additional 60 min. Animals are monitored for a total of 120 minutes.
Data are expressed as the mean (±SEM) distance traveled recorded in 5 min intervals over the test period. The data was analyzed using repeated measures analysis of variance (ANOVA) followed by post-hoc testing using Dunnett's test, when appropriate. A difference was considered significant when p≦0.05. The data for the dose-response studies were analyzed by a between-group analysis of variance. If there was a main effect of dose, then each dose group was compared with the vehicle amphetamine group. The calculations were performed using JMP IN 8 (SAS Institute, Cary, N.C.) statistical software and graphed using SigmaPlot9 (Saugua, Mass.).
Amphetamine sulfate was obtained from Sigma (Cat#A5880-1G; St. Louis, Mo.) and 10 mg was dissolved in 10 ml of water. […]

For another data set, the target named is human mGluR5a receptor (Homo sapiens, UniProt P41594). As to the kind of experiment: Cell-based functional assay (Ca2+ mobilization, FDSS), potentiation of glutamate EC20 response. Particulars: H10H cell line; for Emax: maximum % effect in the concentration-response curve as percent of maximal glutamate response, glutamate EC20; for EC50: potentiation in presence of glutamate EC20, concentration in mol/L. The text has this:
Human mGluR5a cDNA in pCMV6-XL6 mammalian expression plasmid was purchased from OriGene Technologies, Inc. (catalogue number SC326357) and subcloned into pcDNA3.1(−). Human embryonic kidney (HEK)293A cells were then transfected with human mGluR5a pcDNA3.1(−) using LipofectAmine-2000 (Invitrogen) and monoclones were selected and tested for functional response using a Ca^2+ mobilization assay. Monoclones were named for the species (“H” for human) plus the location on the plate (e.g. “10H”).
HEK cells transfected with the human mGluR5a receptor (H10H or H12H cell line) were plated at 15,000 cells/well in clear-bottomed poly-D-lysinecoated assay plates (BD Falcon) in glutamate-glutamine-free growth medium and incubated overnight at 37° C. and 5% CO2. Cell-lines used were either the H10H or H12H cell-lines expressing the human mGluR5 receptor. The following day, the growth medium was removed and the cells were washed with assay buffer containing 1× Hank's balanced salt solution (Invitrogen, Carlsbad, Calif.), 20 mM HEPES, 2.5 mM probenecid, pH 7.4 and left with 20 μL of this reagent. Following this step, the cells were loaded with calcium indicator dye, fluo-4 AM, to a final concentration of 2 μM and incubated for 40-45 min at 37° C. The dye solution was removed and replaced with assay buffer. Cell plates were held for 10-15 min at room temperature and were then loaded into the Functional Drug Screening System 6000 (FDSS 6000, Hamamatsu, Japan).
After establishment of a fluorescence baseline for about 3 seconds, the compounds of the present invention were added to the cells, and the response in cells was measured. 2.3 minutes later an EC20 concentration of the mGluR5 receptor agonist glutamate was added to the cells, and the response of the cells was measured for about 1.7 minutes. All test compounds were dissolved and diluted to a concentration of 10 mM in 100% DMSO and then serially diluted into assay buffer for a 2× stock solution in 0.6% DMSO; stock compounds were then added to the assay for a final DMSO concentration of 0.3% after the first addition to the assay well. Calcium fluorescence measures were recorded as fold over basal fluorescence; raw data was then normalized to the maximal response to glutamate. Potentiation of the agonist response of the mGluR5 receptor in the present invention was observed as an increase in response to submaximal concentrations of glutamate in the presence of compound compared to the response to glutamate in the absence of compound.
The concentration-response curves of compounds of the present invention, obtained in the presence of EC20 of mGluR5 receptor agonist glutamate to determine positive allosteric modulation, were generated using Microsoft Excel with IDBS XLFit add-ins. The raw data file containing all time points was used as the data source in the analysis template. This was saved by the FDSS as a tab-delimited text file. Data were normalized using a static ratio function (F/F0) for each measurement of the total 350 values per well divided by each well's initial value. Data was then reduced as to peak amplitudes (Max Initial Min) using a time range that starts approximately 1 second after the glutamate EC20 addition and continues for approximately 40 seconds. This is sufficient time to capture the peak amplitude of the cellular Calcium response. Individual amplitudes were expressed as % EMax by multiplying each amplitude by 100 and then dividing the product by the mean of the amplitudes derived from the glutamate ECMax-treated wells. pEC50 values for test compounds were generated by fitting the normalized values versus the log of the test compound concentration (in mol/L) using a 4 parameter logistic equation where none of the parameters were fixed. Each of the three values collected at each concentration of test compound were weighted evenly. Individual values falling outside the 95% prediction limits of the curve fit were automatically excluded from the fit. […]

Chain of human mGluR5a receptor (P41594 21-1180 isoform P41594-2 limits assumed): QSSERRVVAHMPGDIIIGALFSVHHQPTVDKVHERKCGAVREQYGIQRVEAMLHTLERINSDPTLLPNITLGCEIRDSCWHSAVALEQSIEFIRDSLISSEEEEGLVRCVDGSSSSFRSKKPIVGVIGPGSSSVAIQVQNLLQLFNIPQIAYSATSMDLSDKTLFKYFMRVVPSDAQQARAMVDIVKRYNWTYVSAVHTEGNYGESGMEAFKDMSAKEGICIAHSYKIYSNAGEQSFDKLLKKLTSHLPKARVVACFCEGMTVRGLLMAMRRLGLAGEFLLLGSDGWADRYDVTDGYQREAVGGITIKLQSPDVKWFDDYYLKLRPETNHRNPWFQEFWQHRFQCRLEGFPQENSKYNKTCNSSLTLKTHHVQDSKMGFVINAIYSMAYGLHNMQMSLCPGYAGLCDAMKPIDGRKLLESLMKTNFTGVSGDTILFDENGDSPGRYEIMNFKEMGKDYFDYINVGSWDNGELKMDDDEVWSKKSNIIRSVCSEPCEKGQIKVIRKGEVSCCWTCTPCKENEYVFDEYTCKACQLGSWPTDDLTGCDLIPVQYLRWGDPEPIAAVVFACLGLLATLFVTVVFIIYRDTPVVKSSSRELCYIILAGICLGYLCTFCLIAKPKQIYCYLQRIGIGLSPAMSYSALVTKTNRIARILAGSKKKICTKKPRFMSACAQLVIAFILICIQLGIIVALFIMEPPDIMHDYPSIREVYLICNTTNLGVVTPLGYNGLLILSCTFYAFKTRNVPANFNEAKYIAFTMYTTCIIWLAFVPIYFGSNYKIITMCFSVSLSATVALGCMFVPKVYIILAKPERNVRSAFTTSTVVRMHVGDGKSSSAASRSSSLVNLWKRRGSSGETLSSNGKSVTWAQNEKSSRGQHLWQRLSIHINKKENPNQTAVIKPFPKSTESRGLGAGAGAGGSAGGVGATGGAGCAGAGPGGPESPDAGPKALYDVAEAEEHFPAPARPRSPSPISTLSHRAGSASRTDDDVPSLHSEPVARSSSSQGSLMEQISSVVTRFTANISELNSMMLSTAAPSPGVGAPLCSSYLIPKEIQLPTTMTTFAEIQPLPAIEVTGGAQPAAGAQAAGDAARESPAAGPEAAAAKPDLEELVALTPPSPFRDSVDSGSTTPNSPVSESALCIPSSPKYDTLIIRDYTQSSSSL

The melting point is the temperature of the solid-liquid transition. The term Emax denotes the greatest response seen or fitted, relative to the assay's reference. A word on the EC50: it is the concentration at which the effect is half-maximal. As to `CN(C)c1cccc(N2CCn3nc(OCc4ccccc4)cc3C2=O)n1` [Example B15, 2-(benzyloxy)-5-(6-(dimethylamino)pyridin-2-yl)-6,7-dihydropyrazolo[1,5-a]pyrazin-4(5H)-one], the melting point turned out to be 115.3 °C. In addition, the “% Reversal of amphetamine-induced hyperlocomotion” value (“% Reversal” below) in data set [1] is on record as 32%. Further, on human mGluR5a receptor, the Emax came out at 61% and the EC50 is 25.7 nM.

As to `O=C1c2cc(OCc3ccccc3)nn2CCCN1CC1CC1` [Example B53, 2-(benzyloxy)-5-(cyclopropylmethyl)-5,6,7,8-tetrahydro-4H-pyrazolo[1,5-a][1,4]diazepin-4-one], the melting point was in the range of 68.1 to 68.4 °C. In addition, on human mGluR5a receptor, the Emax stood at 23% and the EC50 is 1320 nM.

Consider `Cc1nc(N2CCCn3nc(OCc4ccccc4)cc3C2=O)ccc1F` [Example B51], for which the melting point was in the range of 114.6 to 116.1 °C. Also, on human mGluR5a receptor, the Emax was 53% and the concentration giving a half-maximal response (EC50) is 363 nM.

Compound `Cc1cncc(N2CCn3nc(OCc4ccccc4)cc3C2=O)n1` [Example B22] gave a melting point of 215.2 °C. For the same compound, at human mGluR5a receptor, the Emax was 43% and the EC50 is 708 nM.

`CC1CN(c2ccc(F)cc2)C(=O)c2cc(OCc3ccccc3)nn21` (single isomer, unassigned) [Example B10] gave a melting point of 134.8 °C. At human mGluR5a receptor, the Emax was 53% and the EC50 is 174 nM.

Regarding `COc1cccc(COc2cc3n(n2)CCN(c2ccc(F)cc2)C3=O)c1` [Example B33], the melting point was determined as 105.1 °C. Moreover, on human mGluR5a receptor, the Emax came out at 18% and the EC50 was more than 30200 nM.

As for `Cc1nc(N2CCn3nc(OCc4ccccc4)cc3C2=O)ccc1F` [Example B17, 2-(benzyloxy)-5-(5-fluoro-6-methylpyridin-2-yl)-6,7-dihydropyrazolo[1,5-a]pyrazin-4(5H)-one], the melting point turned out to be 167.1 °C. Also, in data set [1], the “% Reversal” value is 14%. In addition, on human mGluR5a receptor, the Emax is 55% and the EC50 was 123 nM.

Compound `O=C1c2cc(OCc3ccccc3)nn2CCN1c1ccccc1F` [Example B6] returned a melting point of 151.9 °C. Also, on human mGluR5a receptor, the Emax was found to be 44% and the EC50 was 229 nM.

For `C[C@@H]1Cn2nc(OCc3ccccc3)cc2C(=O)N1c1ccc(F)cc1` [Example B9], the melting point amounted to 229.9 °C. Besides, on human mGluR5a receptor, the Emax stood at 52% and the EC50 is 87.1 nM.

The compound `O=C1c2cc(OCc3ccccc3)nn2CCN1c1ccc(F)cn1` [Example B16] returned a melting point of 145.5 °C. In addition, at human mGluR5a receptor, the Emax amounted to 45% and the EC50 was more than 10000 nM.

`O=C1c2cc(OCc3ccccc3)nn2CCN1c1ccncc1` [Example B13] had a melting point of 167.2 °C. At human mGluR5a receptor, the Emax is 37% and the EC50 was more than 10000 nM.

As to `O=C1c2cc(OCc3ccccc3F)nn2CCN1c1ccc(F)cc1` [Example B4, 2-[(2-fluorobenzyl)oxy]-5-(4-fluorophenyl)-6,7-dihydropyrazolo[1,5-a]pyrazin-4(5H)-one], the melting point came out at 119 °C. For the same compound, at human mGluR5a receptor, the Emax stood at 63% and the EC50 is 141 nM.

Turning to `Cc1cccc(N2CCCn3nc(OCc4ccccc4)cc3C2=O)n1` [Example B52], the melting point fell in the range of 142.2 to 142.3 °C. Moreover, on human mGluR5a receptor, the Emax came to 48% and the EC50 is 269 nM.

`O=C1c2cc(OCc3cccc(F)c3)nn2CCN1c1ccc(F)cc1` [Example B26, 2-((3-fluorobenzyl)oxy)-5-(4-fluorophenyl)-6,7-dihydropyrazolo[1,5-a]pyrazin-4(5H)-one] came in with a melting point of 116.4 °C. In addition, the “% Reversal” value in data set [1] amounted to 25%. For the same compound, at human mGluR5a receptor, the Emax worked out at 45% and the EC50 was 95.5 nM.

On to `COc1cc(CN2CCn3nc(OCc4ccccc4)cc3C2=O)ccc1F` [Example B69], for which the melting point was 115.1 °C. Besides, at human mGluR5a receptor, the maximum response (Emax) was 63% and the EC50 was 692 nM.

Compound `O=C1c2cc(OCc3ccccc3)nn2CCCN1c1ccc(F)cc1` [Example B49, 2-(benzyloxy)-5-(4-fluorophenyl)-5,6,7,8-tetrahydro-4H-pyrazolo[1,5-a][1,4]diazepin-4-one] returned a melting point of 140.2 to 140.7 °C. Also, on human mGluR5a receptor, the Emax worked out at 47% and the EC50 is 550 nM.

These data come from patent US8901125B2, “Substituted bicyclic alkoxy pyrazole analogs as allosteric modulators of mGluR5 receptors” (Vanderbilt University, priority 2012, dated 2014).
